Calls of active or inactive are those of the source. No cut-off for these calls is given here.
Legend:
[1] = Antioxidant activity assessed as ABTS radical scavenging activity; format: functional
[2] = system: Erythrocyte; experiment: Antioxidant activity assessed as protection against hemin-induced erythrocytes hemolysis up to 1 uM; format: functional, cell-based
[3] = Antioxidant activity against […]-induced DNA damage assessed as inhibition time; format: functional
[4] = system: Radical scavenging activity; experiment: Antioxidant activity assessed as DPPH radical scavenging activity; format: functional
[5] = Antioxidant activity against […]-induced hemolysis of erythrocytes assessed as lag time of inhibition; format: functional, Erythrocyte
[6] = Antioxidant activity assessed as galvinoxyl radical scavenging activity; format: functional
[7] = Antioxidant activity assessed as protection against hemin-induced erythrocytes hemolysis at 0.6 uM; format: functional; conditions: Erythrocyte

IC50 [1] [µM]	IC50 [4] [µM]	IC50 [6] [µM]	SMILES	Activity [2]	TIME [3] [h]	Time [5] [min]	inhibition at 0.6 µM [7] [%]
3.9	180	65	OC[C@H]1O[C@@H](n2cnc3c(S)ncnc32)[C@H](O)[C@@H]1O [THIOINOSINE]	inactive	3.12	482	
11.6	22.8		Cc1c(C)c2c(c(C)c1O)CCC(C)(C(=O)O)O2 (stereo not given) [TROLOX]				
4.7	65	188	Sc1ncnc2nc[nH]c12 [MERCAPTOPURINE ANHYDROUS]	inactive	3	406	
6.5	43	7.1	C[C@H](CS)C(=O)N1CCC[C@H]1C(=O)O [CAPTOPRIL]		3.38	270	80

From ChEMBL document CHEMBL1154239, “Captopril and 6-mercaptopurine: whose SH possesses higher antioxidant ability?” (Eur J Med Chem, 2009)
